Source: patent publication US12435144B2, “Use of combination of anti-PD-1 antibody and VEGFR inhibitor in preparation of drug for treating cancers” (Suzhou Suncadia Biopharmaceuticals Co., Ltd., priority 2016, dated 2025)

Experiments:
[1] = system: mouse colon cancer cell MC-38 (PD-L1) xenograft; test: MC38 (PD-L1) xenograft in human PD-1 transgenic C57 mice; assay type: in vivo; settings: anti-PD-1 antibody 3 mg/kg ip Q2D*7, apatinib 200 mg/kg po QD*14
Protocol: • 1. Study purposes: Human PD-1 transgenic mice were used as test animals. The effects of anti-PD-1 antibody in combination with apartinib on human PD-1 expressed in transgenic C57 mice were evaluated, and the transgenic mice bear mouse colon cancer cell MC-38 (PD-L1) xenograft transfected with PD-L1 gene. • 2. Test antibodies and compounds: The anti-PD-1 antibody was prepared according to the method disclosed in WO2015085847 in which the corresponding code of the antibody is H005-1, and the sequences of the heavy and light chain are shown in SEQ ID NO: 7 and SEQ ID NO: 8 in the present invention. Lot number: P1512, 200 mg/vial, formulated into 20 mg/ml before use. Apatinib mesylate was prepared according to the method disclosed in CN101676267A, lot number: 668160401; molecular weight: 493.58; purity: 99.60%. • 3. Experimental animals: Human PD-1 transgenic C57 mice, specific-pathogen-free (SPF), with different body weights, 50% male and 50% female, were purchased from IsisInnovation Limited, UK. • 4. Drug preparation: Anti-PD-1 antibody (3 mg/kg): anti-PD-1 antibody stock solution (20 mg/ml) was adjusted to a concentration of 0.3 mg/ml with phosphate buffered saline (PBS), and the intraperitoneal injection volume was 0.2 ml/mouse. Apatinib (200 mg/kg): 400 mg apatinib was dissolved in 20 ml of 0.5% sodium carboxymethylcellulose (NaCMC), adjusted to 20 mg/ml, and was administered in 0.2 ml per mouse by gavage. […] The specific drug administration regimen is shown in Table 1. • 5.4 Determination of volume of xenograft and body weight of mice: Tumor volume and body weight were measured twice a week and data were recorded. • 5.5 Statistics: Excel 2003 statistical software was used: the mean was calculated by avg; the SD value was calculated by STDEV; the SEM value was calculated by STDEV/SQRT; the P value indicating the difference between groups is calculated by TTEST. […]

[2] = system: metastatic gastric/gastroesophageal junction cancer; settings: cited from earlier work
VEGFR-2 = VEGFR-2 (Homo sapiens, UniProt P35968); settings: little or no inhibition on other kinases; cited from earlier work
Chain of VEGFR-2 (P35968 20-1356, species assumed): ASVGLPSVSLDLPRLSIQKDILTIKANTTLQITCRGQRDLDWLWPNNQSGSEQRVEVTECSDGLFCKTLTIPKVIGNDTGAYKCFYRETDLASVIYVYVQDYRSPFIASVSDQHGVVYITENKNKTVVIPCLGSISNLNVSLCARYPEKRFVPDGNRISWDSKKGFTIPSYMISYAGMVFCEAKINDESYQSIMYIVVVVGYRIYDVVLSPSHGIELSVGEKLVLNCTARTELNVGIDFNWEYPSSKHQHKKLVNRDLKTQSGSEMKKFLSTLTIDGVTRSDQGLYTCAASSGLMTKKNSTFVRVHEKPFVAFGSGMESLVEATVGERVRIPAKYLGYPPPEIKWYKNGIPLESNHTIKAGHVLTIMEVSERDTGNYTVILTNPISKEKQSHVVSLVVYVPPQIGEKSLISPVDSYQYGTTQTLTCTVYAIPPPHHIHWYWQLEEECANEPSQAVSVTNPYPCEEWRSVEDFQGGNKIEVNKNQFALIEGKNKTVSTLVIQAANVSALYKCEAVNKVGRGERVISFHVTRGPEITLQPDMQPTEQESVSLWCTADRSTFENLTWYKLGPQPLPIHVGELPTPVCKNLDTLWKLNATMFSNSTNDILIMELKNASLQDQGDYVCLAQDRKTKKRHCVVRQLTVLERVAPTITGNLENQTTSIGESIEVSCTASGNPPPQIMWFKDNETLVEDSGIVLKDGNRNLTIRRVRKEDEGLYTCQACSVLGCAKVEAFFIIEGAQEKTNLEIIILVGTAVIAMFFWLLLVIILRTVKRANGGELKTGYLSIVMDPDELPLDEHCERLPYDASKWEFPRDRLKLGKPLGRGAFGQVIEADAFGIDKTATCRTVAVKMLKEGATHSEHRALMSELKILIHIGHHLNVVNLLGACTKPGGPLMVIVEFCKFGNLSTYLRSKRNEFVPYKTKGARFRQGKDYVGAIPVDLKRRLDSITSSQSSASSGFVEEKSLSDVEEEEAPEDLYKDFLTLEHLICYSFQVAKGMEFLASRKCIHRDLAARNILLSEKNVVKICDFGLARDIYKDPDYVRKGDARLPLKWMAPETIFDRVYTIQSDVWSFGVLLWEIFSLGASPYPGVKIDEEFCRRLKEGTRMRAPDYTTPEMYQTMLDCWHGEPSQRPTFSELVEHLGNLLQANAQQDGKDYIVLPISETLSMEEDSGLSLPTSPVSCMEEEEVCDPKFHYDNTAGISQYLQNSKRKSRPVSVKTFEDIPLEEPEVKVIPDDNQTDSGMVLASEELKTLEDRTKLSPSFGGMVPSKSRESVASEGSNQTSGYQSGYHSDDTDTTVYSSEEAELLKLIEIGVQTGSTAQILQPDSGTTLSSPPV

[3] = apatinib alone compared with placebo

In the case of `N#CC1(c2ccc(NC(=O)c3cccnc3NCc3ccncc3)cc2)CCCC1` [apatinib, reference compound], the “Relative tumor volume D21” value ([1]; RTV=VT/V0, day 21) is reported as 9.27, the “% Tumor inhibition rate D21” value ([1]; day 21, vs HIgG control) is reported as 25.67% and the “Mean tumor volume (mm^3) D21” value ([1]; day 21 after initial administration, 8 mice/group) is reported as 1263.86 mm^3. The “prolongation of median overall survival” value [2, 3] was 1.8 months, the “prolongation of median progression-free survival” value [2, 3] was 0.8 months and the adverse events ([2]; apatinib alone) was “controllable”. The “selectivity for VEGFR-2 over other kinases” value (VEGFR-2) was “highly selective for VEGFR-2”.
